# Experimental data as given in article PMC12337661, “PIEZO1 mechanical insensitivity in generalized lymphatic dysplasia with the potential for pharmacological rescue” (iScience, 2025).
# Target: T1, I2286T mPIEZO1 (Mus musculus, UniProt E2JF22, I2286T)
# T1 construct: expressed in transfected cells
# Experiment: Intracellular Ca2+ measurement (fura-2), T-REx-293 cells stably transfected
# Type: cell-based
# Experimental: T-REx-293 cell line was transfected with pcDNA4/TO-mPIEZO1 constructs using Lipofectamine 2000 (Invitrogen) as above and treated with 200 μg.mL^−1 zeocin (InvivoGen) to select for stably transfected cells. At least two strongly expressing clonal cell lines were established and tested for each variant. All cell lines were maintained in Dulbecco’s Modified Eagle’s medium (Invitrogen) supplemented with 10% heat-inactivated fetal calf serum (Sigma-Aldrich), penicillin (50 units.mL^−1) and streptomycin (0.5 mg.mL^−1) (Sigma-Aldrich) and grown at 37°C in a humidified 5% CO2 incubator.
# For intracellular Ca^2+ assays, cells were plated at 80–90% confluence in 96-well plates 24 h prior to recordings (6–8 × 10^4 cells per well). […] Cells were washed with SBS and incubated at room temperature for 20 min prior to recordings. Equal volumes of 2x concentrated compounds were injected to test for acute channel activation. Pre-incubation with compounds occurred during the 20 min prior to recordings. To expose cell membranes to hypo-osmolality, an equal volume of hypotonic SBS (containing only 35 mM NaCl) was injected onto the cells. Measurements were made on a fluorescence plate reader (Flexstation III, Molecular Devices) at room temperature (21 ± 2°C). Fura-2 was excited at 340 nm and 380 nm and emitted light collected at 510 nm, with measurements shown as the change in fluorescence (F) ratio (ΔF340/380).
# KC41 (Dooku1) was prepared as described.[28] All purchased chemicals and solvents were used without further purification unless otherwise stated. All compounds were at least 95% pure by 1H NMR. 1H Nuclear Magnetic Resonance spectra were recorded at 500 MHz using a Bruker DRX 500 instrument or at 400 MHz using a Bruker DPX 400. 1H spectra are referenced based on the residual proton in the solvent (e.g., the CHCl3, 0.01% in 99.99% CDCl3). Coupling constants (J) are reported to the nearest 0.1 Hz. 13C NMR spectra were recorded at 125 MHz on 500 MHz spectrometers or at 100 MHz on 400 MHz spectrometers. LC-MS was performed on a Bruker Daltronics running a gradient of increasing acetonitrile (5–95%) in H2O both containing 0.1% formic acid at 1 mL.min^−1, on a short path C18 reverse phase column, detecting compounds with both a diode array detector and a Bruker mass spectrum analyser. HRMS was performed on a Bruker Daltonics micrOTOF using positive electrospray ionisation (ES+). Automated column chromatograph was carried out using a Biotage Isolera Four, using either Sfär Silica D or KP-Silica cartridges. HPLC was performed on an Agilent 1290 Infinity Series equipped with a UV detector and Hyperprep C18 reverse phase column. Key to NMR abbreviations: s (singlet), br s (broad singlet) d (doublet), dd (doublet of doublets), ddd (doublet of doublets of doublets), t (triplet), dt (doublet of triples), q (quartet), m (multiplet), ap. t (apparent triplet). For experiments, Yoda1 and its analogues were prepared as 10 mM stock solutions in 100% dimethyl sulfoxide (DMSO) before serial dilution in DMSO and final dilution in aqueous solution. Cells were exposed to 0.1% DMSO for all concentrations of the compounds from 0 to 10 μM.
# T1 sequence (E2JF22 whole entry I2286T): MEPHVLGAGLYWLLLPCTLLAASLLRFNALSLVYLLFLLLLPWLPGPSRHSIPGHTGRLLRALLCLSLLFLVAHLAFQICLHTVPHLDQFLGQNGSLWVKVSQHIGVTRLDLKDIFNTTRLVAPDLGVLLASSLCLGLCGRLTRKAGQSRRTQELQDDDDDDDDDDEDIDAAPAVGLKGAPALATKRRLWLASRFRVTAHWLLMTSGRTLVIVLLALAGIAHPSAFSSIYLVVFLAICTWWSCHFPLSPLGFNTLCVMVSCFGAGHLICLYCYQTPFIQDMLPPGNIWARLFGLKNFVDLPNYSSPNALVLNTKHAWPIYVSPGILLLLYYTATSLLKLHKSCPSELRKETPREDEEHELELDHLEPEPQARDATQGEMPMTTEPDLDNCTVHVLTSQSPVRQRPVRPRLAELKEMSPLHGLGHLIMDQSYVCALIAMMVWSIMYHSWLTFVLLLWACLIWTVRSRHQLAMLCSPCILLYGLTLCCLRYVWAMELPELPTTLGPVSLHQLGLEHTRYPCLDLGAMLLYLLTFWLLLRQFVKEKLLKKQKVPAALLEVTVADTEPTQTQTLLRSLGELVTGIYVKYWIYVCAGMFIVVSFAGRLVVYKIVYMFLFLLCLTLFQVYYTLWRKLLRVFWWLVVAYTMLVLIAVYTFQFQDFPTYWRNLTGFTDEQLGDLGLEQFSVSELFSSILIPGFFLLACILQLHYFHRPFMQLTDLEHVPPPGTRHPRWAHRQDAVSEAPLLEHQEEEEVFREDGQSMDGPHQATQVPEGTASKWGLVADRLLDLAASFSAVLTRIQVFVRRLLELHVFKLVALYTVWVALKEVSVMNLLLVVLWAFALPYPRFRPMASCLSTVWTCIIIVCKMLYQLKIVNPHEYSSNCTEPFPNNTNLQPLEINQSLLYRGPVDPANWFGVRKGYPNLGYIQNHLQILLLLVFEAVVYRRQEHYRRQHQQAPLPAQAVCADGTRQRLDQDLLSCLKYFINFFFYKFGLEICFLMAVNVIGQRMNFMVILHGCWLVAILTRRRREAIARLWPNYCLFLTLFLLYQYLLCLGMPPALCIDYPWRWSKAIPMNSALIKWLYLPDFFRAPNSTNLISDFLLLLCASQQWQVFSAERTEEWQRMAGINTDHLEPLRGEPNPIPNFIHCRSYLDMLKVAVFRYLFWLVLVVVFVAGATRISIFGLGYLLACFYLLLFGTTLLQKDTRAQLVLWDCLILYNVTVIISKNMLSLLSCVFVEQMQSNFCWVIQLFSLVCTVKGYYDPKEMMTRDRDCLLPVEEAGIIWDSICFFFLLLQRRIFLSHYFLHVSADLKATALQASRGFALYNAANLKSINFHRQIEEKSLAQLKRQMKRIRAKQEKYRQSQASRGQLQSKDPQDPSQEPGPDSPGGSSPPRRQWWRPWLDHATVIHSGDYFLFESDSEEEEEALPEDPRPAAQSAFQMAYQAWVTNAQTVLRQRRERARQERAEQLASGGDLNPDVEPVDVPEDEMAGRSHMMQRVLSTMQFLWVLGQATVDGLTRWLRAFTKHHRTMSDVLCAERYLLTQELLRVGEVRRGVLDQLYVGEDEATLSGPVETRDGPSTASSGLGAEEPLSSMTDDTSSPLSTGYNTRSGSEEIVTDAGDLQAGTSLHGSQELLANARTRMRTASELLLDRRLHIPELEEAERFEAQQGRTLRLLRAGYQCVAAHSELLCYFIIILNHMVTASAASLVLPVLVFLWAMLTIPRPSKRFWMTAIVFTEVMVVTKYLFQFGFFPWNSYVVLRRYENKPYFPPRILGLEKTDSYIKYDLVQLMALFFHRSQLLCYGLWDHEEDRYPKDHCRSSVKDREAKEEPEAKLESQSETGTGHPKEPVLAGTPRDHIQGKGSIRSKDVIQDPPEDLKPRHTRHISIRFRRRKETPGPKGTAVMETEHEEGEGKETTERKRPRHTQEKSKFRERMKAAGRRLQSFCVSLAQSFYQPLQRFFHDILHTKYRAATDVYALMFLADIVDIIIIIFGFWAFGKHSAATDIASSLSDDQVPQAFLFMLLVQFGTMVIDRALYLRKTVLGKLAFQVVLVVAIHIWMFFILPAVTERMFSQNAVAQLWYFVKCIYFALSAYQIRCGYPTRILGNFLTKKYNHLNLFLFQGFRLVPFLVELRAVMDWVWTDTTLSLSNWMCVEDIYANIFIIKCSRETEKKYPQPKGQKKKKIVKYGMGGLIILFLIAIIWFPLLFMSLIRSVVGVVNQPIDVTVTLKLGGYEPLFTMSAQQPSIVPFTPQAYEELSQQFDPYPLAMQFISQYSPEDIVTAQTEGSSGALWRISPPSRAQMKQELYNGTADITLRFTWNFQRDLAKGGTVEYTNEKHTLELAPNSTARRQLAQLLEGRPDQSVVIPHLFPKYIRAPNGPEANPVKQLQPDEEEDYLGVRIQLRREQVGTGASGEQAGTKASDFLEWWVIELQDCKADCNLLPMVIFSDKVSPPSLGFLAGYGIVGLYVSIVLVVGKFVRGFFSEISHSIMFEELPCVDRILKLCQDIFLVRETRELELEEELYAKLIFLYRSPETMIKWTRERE
compound,measurement,setting,value
"O=C(O)c1ccc(-c2cnc(SCc3c(Cl)cccc3Cl)s2)cc1 [Yoda2b, 4-(2-([(2,6-Dichlorophenyl)methyl]sulfanyl)-1,3-thiazol-5-yl)benzoic acid]",Mean (ΔFratio),"0.3 µM, time 0 s",0.00239
same,Mean (ΔFratio),"0.3 µM, time 5 s",-0.00843
same,Mean (ΔFratio),"0.3 µM, time 10 s",0.00738
same,Mean (ΔFratio),"0.3 µM, time 15 s",-3.95E-05
same,Mean (ΔFratio),"0.3 µM, time 20 s",-9.74E-04
same,Mean (ΔFratio),"0.3 µM, time 25 s",-3.25E-04
same,Mean (ΔFratio),"0.3 µM, time 30 s",-0.07905
same,Mean (ΔFratio),"0.3 µM, time 35 s",-0.08536
same,Mean (ΔFratio),"0.3 µM, time 40 s",0.2313
same,Mean (ΔFratio),"0.3 µM, time 45 s",0.4546
same,Mean (ΔFratio),"0.3 µM, time 50 s",0.5954
same,Mean (ΔFratio),"0.3 µM, time 55 s",0.6989
same,Mean (ΔFratio),"0.3 µM, time 60 s",0.7448
same,Mean (ΔFratio),"0.3 µM, time 65 s",0.7353
same,Mean (ΔFratio),"0.3 µM, time 70 s",0.7286
same,Mean (ΔFratio),"0.3 µM, time 75 s",0.7236
same,Mean (ΔFratio),"0.3 µM, time 80 s",0.681
same,Mean (ΔFratio),"0.3 µM, time 85 s",0.6794
same,Mean (ΔFratio),"0.3 µM, time 90 s",0.6567
same,Mean (ΔFratio),"0.3 µM, time 95 s",0.6006
same,Mean (ΔFratio),"0.3 µM, time 100 s",0.6101
same,Mean (ΔFratio),"0.3 µM, time 105 s",0.603
same,Mean (ΔFratio),"0.3 µM, time 110 s",0.5805
same,Mean (ΔFratio),"0.3 µM, time 115 s",0.5587
same,Mean (ΔFratio),"0.3 µM, time 120 s",0.5669
same,Mean (ΔFratio),"0.3 µM, time 125 s",0.5131
same,Mean (ΔFratio),"0.3 µM, time 130 s",0.5257
same,Mean (ΔFratio),"3 µM, time 0 s",-0.00226
same,Mean (ΔFratio),"3 µM, time 5 s",0.01302
same,Mean (ΔFratio),"3 µM, time 10 s",-0.01316
same,Mean (ΔFratio),"3 µM, time 15 s",-0.00422
same,Mean (ΔFratio),"3 µM, time 20 s",0.00798
same,Mean (ΔFratio),"3 µM, time 25 s",-0.00136
same,Mean (ΔFratio),"3 µM, time 30 s",-0.4575
same,Mean (ΔFratio),"3 µM, time 35 s",-0.0464
same,Mean (ΔFratio),"3 µM, time 40 s",0.8681
same,Mean (ΔFratio),"3 µM, time 45 s",1.381
same,Mean (ΔFratio),"3 µM, time 50 s",1.657
same,Mean (ΔFratio),"3 µM, time 55 s",1.797
same,Mean (ΔFratio),"3 µM, time 60 s",1.789
same,Mean (ΔFratio),"3 µM, time 65 s",1.7806
same,Mean (ΔFratio),"3 µM, time 70 s",1.778
same,Mean (ΔFratio),"3 µM, time 75 s",1.702
same,Mean (ΔFratio),"3 µM, time 80 s",1.669
same,Mean (ΔFratio),"3 µM, time 85 s",1.657
same,Mean (ΔFratio),"3 µM, time 90 s",1.535
same,Mean (ΔFratio),"3 µM, time 95 s",1.511
same,Mean (ΔFratio),"3 µM, time 100 s",1.421
same,Mean (ΔFratio),"3 µM, time 105 s",1.3863
same,Mean (ΔFratio),"3 µM, time 110 s",1.364
same,Mean (ΔFratio),"3 µM, time 115 s",1.304
same,Mean (ΔFratio),"3 µM, time 120 s",1.27
same,Mean (ΔFratio),"3 µM, time 125 s",1.258
same,Mean (ΔFratio),"3 µM, time 130 s",1.2123
same,EC50,1.5 min exposure,710 nM
same,"Mean (concentration-response, Figure 3l)","1.5 min exposure, 0.01 µM",0.00606
same,"Mean (concentration-response, Figure 3l)","1.5 min exposure, 0.03 µM",0.01869
same,"Mean (concentration-response, Figure 3l)","1.5 min exposure, 0.1 µM",0.08252
same,"Mean (concentration-response, Figure 3l)","1.5 min exposure, 0.3 µM",0.2937
same,"Mean (concentration-response, Figure 3l)","1.5 min exposure, 1 µM",0.643
same,"Mean (concentration-response, Figure 3l)","1.5 min exposure, 3 µM",0.8962
same,"Mean (concentration-response, Figure 3l)","1.5 min exposure, 10 µM",1.056
same,side-by-side comparison of channel activation with Yoda1,same 96-well plate,more effective at activating I2286T channels than Yoda1
